Laboratory results reported in patent US6562791B1, “Glucopyranoside, process for isolation thereof, pharmaceutical composition containing same and use thereof” (Council of Scientific and Industrial Research, priority 2002, dated 2003).

Test system: 18 hour fasted Wistar rats
Test: hypoglycaemic activity in 18 hour fasted Wistar rats
Assay type: in vivo
Details: for mean fall (blood glucose): compound at 15 mg/kg p.o., chlorpropamide positive control, dose not given
Experimental: The compound was evaluated for hypoglycaemic activity in 18 hour fasted Wistar rats. […] The mean fall recorded was 24 mg/100 ml blood, from an initial mean of 91 to mean of 67 mg/100 ml blood.

OC[C@H]1O[C@@H](c2c(O)ccc3cc(Cc4ccc(O)cc4)oc23)[C@H](O)[C@@H](O)[C@@H]1O [formula 1, 6-hydroxy-2-p-hydroxybenzylbenzofuran-7-C-β-D-glucopyranoside]
hypoglycaemic effect (15 mg/kg p.o.): hypoglycaemic effect was recorded in all the treated rats | mean blood level after treatment (15 mg/kg p.o., after treatment): 67 mg/100 ml blood | mean fall (blood glucose): 24 mg/100 ml blood | initial mean blood level (initial value of the treated group): 91 mg/100 ml blood

CCCNC(=O)NS(=O)(=O)c1ccc(Cl)cc1 [chlorpropamide, reference compound]
mean fall (blood glucose): 18 mg/100 ml blood
